Reference: patent US20240309003A1, “HETEROCYCLIC COMPOUNDS AS TRIGGERING RECEPTOR EXPRESSED ON MYELOID CELLS 2 AGONISTS AND METHODS OF USE” (Vigil Neuroscience, Inc., priority 2021, published 2024)

What follows are molecules tested against T1, human TREM2 (Homo sapiens, UniProt Q9NZC2) (assay: TREM2 agonist potency by cellular phosphorylation of Syk (AlphaLisa) in HEK293T-hTREM2 cells). Settings: HEK293 cells expressing human TREM2 and DAP12, Table D.
T1 construct: expressed in transfected cells; host or cells: HEK293T
Assay type: cell-based
Method: In Vitro Measurement of Triggering Receptor Expressed on Myeloid Cells 2 Activity Using Cellular Phosphorylation of Spleen Tyrosine Kinase (“Syk”) Assays
Measurement of TREM2 agonist potency was done using a HEK cell line expressing human TREM2 and DAP12 (HEK293T-hTREM2 cells). Binding of small molecules to, and activation of, TREM2 increases the phosphorylation of Syk. The resultant levels of Syk phosphorylation are measured using a commercial AlphaLisa reagent kit. To perform the assay, HEK-hTREM2 cells were plated at 14,000 cells per well in a 384 well plate, in 25 μL of complete growth media and incubated at 37° C., 5% CO2 for 20-24 hours.
Prior to the assay, test compounds were diluted in the 384 well plates in assay buffer and allowed to equilibrate for 30 minutes. Growth media was removed from cell plates by inversion on blotting paper, and 25 μL of test articles in assay buffer was added to cells. Cells were incubated for 45 minutes at room temperature. After 45 minutes, assay buffer was removed and 10 μL of lysis buffer was added. Plates were shaken for 20 minutes at 350 RPM at room temperature. After complete lysis, AlphaLisa reagents were added to the lysate, and fluourescence intensity was measured using a Perkin Elmer Envision plate reader. Intensities were used to generate a standard curve, and % activation was calculated. Curve fitting was performed using Prism v9 software, log(agonist) vs response-variable slope (four parameters), and EC50s were calculated from the curve fit.
This assay may be used to test any of the compounds described herein to assess and characterize a compound's ability to act as an agonist of TREM2.

T1 sequence (Q9NZC2 19-230): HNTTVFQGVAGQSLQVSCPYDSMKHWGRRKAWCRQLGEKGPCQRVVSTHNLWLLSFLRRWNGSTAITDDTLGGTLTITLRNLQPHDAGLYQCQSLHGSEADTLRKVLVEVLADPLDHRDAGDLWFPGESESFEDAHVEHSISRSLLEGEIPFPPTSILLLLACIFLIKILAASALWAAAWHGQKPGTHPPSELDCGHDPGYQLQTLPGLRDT
T1 sequence (O43914 22-113 partner): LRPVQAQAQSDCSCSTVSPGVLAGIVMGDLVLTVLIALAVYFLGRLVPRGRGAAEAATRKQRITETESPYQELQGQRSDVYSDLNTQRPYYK

`Cc1nc2nc([C@H]3CCO[C@@H](c4cnn(C5CC5)c4)C3)cc(-c3ccc(Cl)cc3F)c2nc1C` [Example 224, 8-(4-chloro-2-fluorophenyl)-6-((2R,4S)-2-(1-cyclopropyl-1H-pyrazol-4-yl)tetrahydro-2H-pyran-4-yl)-2,3-dimethylpyrido[2,3-b]pyrazine] and `Cc1nc2nc(-c3ccc(Cl)cc3F)cc([C@H]3CCO[C@@H](c4cnn(C5CC5)c4)C3)c2nc1C` [Example 237, 6-(4-chloro-2-fluorophenyl)-8-((2R,4S)-2-(1-cyclopropyl-1H-pyrazol-4-yl)tetrahydro-2H-pyran-4-yl)-2,3-dimethylpyrido[2,3-b]pyrazine] cannot be ordered by EC50: less than 50 nM for the first, less than 50 nM for the second.

First: Cc1nc2nc([C@H]3CCO[C@@H](c4cnn(CCF)c4)C3)nc(-c3ccc(F)cc3F)c2nc1C [Example 150, 4-(2,4-difluorophenyl)-2-((2R,4S)-2-(1-(2-fluoroethyl)-1H-pyrazol-4-yl)tetrahydro-2H-pyran-4-yl)-6,7-dimethylpteridine]
Second: Cc1nc2nc([C@@H]3CCO[C@H](c4cnn(CCF)c4)C3)nc(-c3ccc(F)cc3F)c2nc1C [Example 149, 4-(2,4-difluorophenyl)-2-((2S,4R)-2-(1-(2-fluoroethyl)-1H-pyrazol-4-yl)tetrahydro-2H-pyran-4-yl)-6,7-dimethylpteridine]
The EC50 of the first is lower: less than 50 nM for the first, 500 to 3000 nM for the second. The first is the more potent here.

First: Cc1nc2nc([C@H]3CCO[C@@H](c4cccn(C)c4=O)C3)nc(-c3ccc(F)cc3F)c2nc1C [Example 203]
Second: Cc1nc2nc([C@@H]3CCO[C@H](c4cccn(C)c4=O)C3)nc(-c3ccc(F)cc3F)c2nc1C [Example 204]
The EC50 of the first is higher: 3000 to 100000 nM for the first, 500 to 3000 nM for the second. The second is the more potent here.

`Cc1cnc2c(C34CC(C(F)(F)F)(C3)C4)nc(N3C[C@@H](c4cnn(C5CC5)c4)O[C@@H](C)C3)nc2n1` [Example 125, (2R,6S)-2-(1-cyclopropyl-1H-pyrazol-4-yl)-6-methyl-4-(7-methyl-4-(3-(trifluoromethyl)bicyclo[1.1.1]pentan-1-yl)pteridin-2-yl)morpholine] and `Cc1cnc2c(-c3ccc(Cl)cc3F)nc(N3C[C@@H](C)O[C@@H](c4cnn(C5CC5)c4)C3)nc2n1` [Example 117, (2S,6R)-4-(4-(4-chloro-2-fluorophenyl)-7-methylpteridin-2-yl)-2-(1-cyclopropyl-1H-pyrazol-4-yl)-6-methylmorpholine] cannot be ordered by EC50: less than 50 nM for the first, less than 50 nM for the second.

`Cc1nc2nc([C@H]3CCO[C@@H](c4cnn(C5CC5)c4)C3)nc(C34CC(C(C)C)(C3)C4)c2nc1C` [Example 127, 2-((2R,4S)-2-(1-cyclopropyl-1H-pyrazol-4-yl)tetrahydro-2H-pyran-4-yl)-4-(3-isopropylbicyclo[1.1.1]pentan-1-yl)-6,7-dimethylpteridine] and `Cc1nc2nc([C@H]3CCO[C@@H](c4cnn(C5CC5)c4)C3)nc(-c3ccc(C(F)(F)F)cc3)c2nc1C` [Example 139] cannot be ordered by EC50: less than 50 nM for the first, less than 50 nM for the second.

`[2H]C([2H])([2H])c1nc2nc([C@H]3CCO[C@@H](c4ccnc(C)c4)C3)nc(-c3ccc(Cl)c(F)c3F)c2nc1C([2H])([2H])[2H]` [Example 137, 4-(4-chloro-2,3-difluorophenyl)-6,7-bis(methyl-d3)-2-((2R,4S)-2-(2-methylpyridin-4-yl)tetrahydro-2H-pyran-4-yl)pteridine] and `Cc1nc2nc([C@@H]3CCO[C@H](c4ccc(=O)n(C)c4)C3)nc(-c3ccc(F)cc3F)c2nc1C` [Example 200] cannot be ordered by EC50: less than 50 nM for the first, less than 50 nM for the second.

For `Cc1nc2nc(N3C[C@@H](C)O[C@@H](c4cnn(C5CC5)c4)C3)nc(-c3ccnc(C(F)(F)F)c3)c2nc1C` [Example 178], the EC50 was less than 50 nM.

Same assay, conditions: HEK293 cells expressing human TREM2 and DAP12, Table D-2

`Cc1nc2nc(N3C[C@@H](C(F)F)O[C@@H](c4cnn(C5CC5)c4)C3)nc(-c3ccc(C(F)(F)F)cc3F)c2nc1C` (stereo in doubt) [Example I-1598, (2S,6S)-2-(1-cyclopropylpyrazol-4-yl)-6-(difluoromethyl)-4-[4-[2-fluoro-4-(trifluoromethyl)phenyl]-6,7-dimethyl-pteridin-2-yl]morpholine] and `Cc1nc2nc([C@H]3CCO[C@@H](c4cnn(C5CC5)c4)C3)nc(-c3ccc(C(F)(F)F)cc3F)c2nc1C(F)F` [Example I-1593, 2-[(2R,4S)-2-(1-cyclopropylpyrazol-4-yl)tetrahydropyran-4-yl]-6-(difluoromethyl)-4-[2-fluoro-4-(trifluoromethyl)phenyl]-7-methyl-pteridine] cannot be ordered by EC50: less than 50 nM for the first, less than 50 nM for the second.

First: Cc1nc2nc([C@@H]3CCO[C@H](c4cnc(C5CC5)o4)C3)nc(-c3ccc(F)cc3F)c2nc1C [Example I-1700, 2-cyclopropyl-5-[(2S,4R)-4-[4-(2,4-difluorophenyl)-6,7-dimethyl-pteridin-2-yl]tetrahydropyran-2-yl]oxazole]
Second: Cc1nc2nc([C@@H]3CCO[C@@H](c4cnc(C5CC5)o4)C3)nc(-c3ccc(F)cc3F)c2nc1C (single isomer, unassigned) [Example I-1696]
The EC50 of the first is lower: 50 to 500 nM for the first, 500 to 3000 nM for the second.

`COCn1cc([C@H]2CN(c3nc(-c4ccc(F)cc4F)c4nc(C)c(C)nc4n3)C[C@@H](C)O2)cn1` [Example I-1441, (2S,6R)-4-[4-(2,4-difluorophenyl)-6,7-dimethyl-pteridin-2-yl]-2-[1-(methoxymethyl)pyrazol-4-yl]-6-methyl-morpholine] and `COCn1cc([C@H]2CN(c3nc(-c4ccc(Cl)cc4F)c4nc(C)c(C)nc4n3)C[C@@H](C)O2)cn1` [Example I-1446, (2S,6R)-4-[4-(4-chloro-2-fluoro-phenyl)-6,7-dimethyl-pteridin-2-yl]-2-[1-(methoxymethyl)pyrazol-4-yl]-6-methyl-morpholine] cannot be ordered by EC50: less than 50 nM for the first, less than 50 nM for the second.

First: Cc1cc(-c2nc(N3C[C@@H](C)O[C@@H](c4cnn(C5CC5)c4)C3)nc3nc(C)c(C)nc23)on1 [Example I-1086, (2S,6R)-2-(1-cyclopropylpyrazol-4-yl)-4-[6,7-dimethyl-4-(3-methylisoxazol-5-yl)pteridin-2-yl]-6-methyl-morpholine]
Second: CCCc1nc2c(-c3ccc(F)cc3F)nc(N3C[C@@H](C)O[C@@H](c4cnn(C5CC5)c4)C3)nc2nc1C [Example I-1293]
The EC50 of the first is higher: 500 to 3000 nM for the first, less than 50 nM for the second. The second is the more potent here.

Compared with `Cc1nc2nc(N3CCOC(c4cnn5c4CCC5)C3)nc(-c3ccc(F)cc3F)c2nc1C` (stereo in doubt) [Example I-1532, (2S)-4-[4-(2,4-difluorophenyl)-6,7-dimethyl-pteridin-2-yl]-2-(5,6-dihydro-4H-pyrrolo[1,2-b]pyrazol-3-yl)morpholine], `Cc1nc2nc(N3C[C@@H](C4CC4)O[C@@H](c4cnn(C)c4)C3)nc(-c3ccc(F)cc3F)c2nc1C` [Example I-1673, (2R,6S)-2-cyclopropyl-4-[4-(2,4-difluorophenyl)-6,7-dimethyl-pteridin-2-yl]-6-(1-methylpyrazol-4-yl)morpholine] is lower in EC50: 50 to 500 nM for the first, less than 50 nM for the second. The second is the more potent here.

Compared with `Cc1nc2nc([C@H]3CCO[C@@H](c4cnn(C5CC5)c4)C3)nc(-c3ccc(C4CC4)cc3F)c2nc1C` [Example I-1187, 2-((2R,4S)-2-(1-cyclopropyl-1H-pyrazol-4-yl)tetrahydro-2H-pyran-4-yl)-4-(4-cyclopropyl-2-fluorophenyl)-6,7-dimethylpteridine], `Cc1nc2nc([C@H]3CCO[C@@H](c4cnn(C5CC5)c4)C3)nc(-c3ccc(F)cc3F)c2nc1C(F)F` [Example I-1323, 2-[(2R,4S)-2-(1-cyclopropylpyrazol-4-yl)tetrahydropyran-4-yl]-6-(difluoromethyl)-4-(2,4-difluorophenyl)-7-methyl-pteridine] is lower in EC50: 50 to 500 nM for the first, less than 50 nM for the second. The second is the more potent here.

First: Cc1nc2nc([C@H]3CCO[C@H](c4cnc(C5CC5)o4)C3)nc(-c3ccc(F)cc3F)c2nc1C [Example I-1698, 2-cyclopropyl-5-[(2S,4S)-4-[4-(2,4-difluorophenyl)-6,7-dimethyl-pteridin-2-yl]tetrahydropyran-2-yl]oxazole]
Second: COc1nc2c(-c3ccc(C(F)(F)F)cc3F)nc([C@H]3CCO[C@@H](c4cnn(C5CC5)c4)C3)nc2nc1C (stereo in doubt) [Example I-1691, 2-((2R,4S)-2-(1-cyclopropyl-1H-pyrazol-4-yl)tetrahydro-2H-pyran-4-yl)-4-(2-fluoro-4-(trifluoromethyl)phenyl)-6-methoxy-7-methylpteridine]
The EC50 of the first is higher: 50 to 500 nM for the first, less than 50 nM for the second.

`CCCc1nc2nc(N3C[C@@H](C)O[C@@H](c4cnn(C5CC5)c4)C3)nc(-c3ccc(F)cc3F)c2nc1C` (single isomer, unassigned) [Example I-1288] and `COCn1cc([C@H]2CN(c3nc(-c4ccc(F)cc4F)c4cc(C)c(C)nc4n3)C[C@@H](C)O2)cn1` [Example I-1226, (2S,6R)-4-[4-(2,4-difluorophenyl)-6,7-dimethyl-pyrido[2,3-d]pyrimidin-2-yl]-2-[1-(methoxymethyl)pyrazol-4-yl]-6-methyl-morpholine] cannot be ordered by EC50: less than 50 nM for the first, less than 50 nM for the second.

Work on `Cc1nc2cc([C@H]3CCO[C@@H](c4cnn(C5CC5)c4)C3)nc(-c3ccc(F)cc3F)c2nc1CC#N` [Example I-1451, 2-(7-((2R,4S)-2-(1-cyclopropyl-1H-pyrazol-4-yl)tetrahydro-2H-pyran-4-yl)-5-(2,4-difluorophenyl)-2-methylpyrido[3,4-b]pyrazin-3-yl)acetonitrile] yielded an EC50 of 500 to 3000 nM.
